In general, chromatographic logD refers to a lipophilicity value derived from retention on a column. One may read the microsomal CLint as the capacity of the preparation to metabolise the compound, expressed as a volume cleared per time. Broadly, the half-life is how long it takes for the measured level to halve. For orientation: clearance means the volume of plasma or blood freed of the substance per unit of time. Read a high clearance as efficient removal. The term Cmax denotes the peak of the concentration-time curve.

The subject of one series is P. falciparum RF12. Kind of series: In vitro antiplasmodial activity, RF12, 72 h [3H]hypoxanthine incorporation. Type of series: cell-based. Conditions: Plasmodium falciparum, read-out: P. falciparum IC50 RF12.
The next series deals with P. falciparum Dd2. Kind of series: In vitro antiplasmodial activity, Dd2, 72 h [3H]hypoxanthine incorporation. It counts as cell-based. To be noted: Plasmodium falciparum, DD2, read-out: P. falciparum IC50 Dd2.
Series [1] relates to Chloroquine-sensitive NF54 P. falciparum isolate. The series is described as follows: In vitro antiplasmodial activity, NF54. Type of series: cell-based, Plasmodium falciparum.
A further series relates to P. falciparum TM90C2B. Type of series: cell-based. To be noted: Plasmodium falciparum, read-out: P. falciparum IC50 TM90C2B.
A further series has as its system P. falciparum K1. The series is described as follows: In vitro antiplasmodial activity, K1, 72 h [3H]hypoxanthine incorporation. It counts as cell-based. To be noted: Plasmodium falciparum, K1, read-out: P. falciparum IC50 K1.
Another series concerns P. falciparum 7G8. Kind of series: In vitro antiplasmodial activity, 7G8, 72 h [3H]hypoxanthine incorporation. It counts as cell-based. To be noted: Plasmodium falciparum, 7G8, read-out: P. falciparum IC50 7G8.
A further series in a line: Chromatographic LogD7.4. It counts as physicochemical. To be noted: pH 7.4; for chromatographic logD: gradient HPLC, Phenomenex Synergi Hydro-RP column; for gLogD7.4: chromatographically determined.
Series [2] is described as follows: Stability in P. falciparum activity test medium. It counts as physicochemical. To be noted: for half-life at 1 μM: P. falciparum in vitro activity test medium.
A short description of series [3]: In vitro intrinsic clearance in human liver microsomes. Type of series: in vitro ADME. To be noted: for microsomal CLint: human, liver microsomes, h CLint. For orientation: Microsomes from liver hold many membrane-bound enzymes, among them those of drug oxidation.
Series [4] is described as follows: In vitro intrinsic clearance in mouse liver microsomes. Type of series: in vitro ADME.
Series [5] can be described thus: Stability in 0.1 M PBS pH 7.4. It counts as physicochemical. Conditions: 7 h incubation period.
A short description of series [6]: In vivo pharmacokinetics in mice. Set-up: species or system male Swiss outbred mice.
For series [7], the system named is GFP MRA-865 strain of Plasmodium berghei. The series is described as follows: In vivo antimalarial activity in P. berghei-infected mice. To be noted: female NMRI mice, four 50 mg/kg daily oral doses; untreated control 52.3 ± 2.6%.
Series [8] deals with rat skeletal myoblast L6 cell line. The series is described as follows: Cytotoxicity, growth inhibition of L6 cells. Type of series: cell-based. To be noted: read-out: L6 IC50, mean from n ≥ 2.
The nature of series [9]: Kinetic solubility at pH 6.5 by nephelometry. Type of series: physicochemical. Conditions: pH 6.5 phosphate buffer, 1% DMSO, solubility range by nephelometry.
[10] abbreviates: Plasmodium falciparum, NF54, read-out: P. falciparum IC50 NF54, Mean ± SD, n ≥ 2, 72 h [3H]hypoxanthine incorporation assay.
Setting [11] is: Plasmodium falciparum, NF54, read-out: P. falciparum IC50, NF54, mean from n ≥ 2.
Setting [12] is: read-out: P. falciparum IC50, NF54, mean from n ≥ 2.

Like-named read-outs stand apart in the source and are kept apart here.

With `C[C@H]1[C@H](OC(=O)CCC(=O)O)O[C@@H]2O[C@@]3(C)CC[C@H]4[C@H](C)CC[C@@H]1[C@@]24OO3` [Artesunate, artesunate], the IC50 in the series with P. falciparum RF12 turned out to be 6.8 ± 1.4 nM; with P. falciparum Dd2, 6.1 ± 1.4 nM; in series [1] (setting [10]), 6 ± 0.9 nM; in the series on P. falciparum TM90C2B, 7.4 ± 1.3 nM; in the series with P. falciparum K1 it was 2.8 ± 0.64 nM.
In the case of `CCN(CC)CCCC(C)Nc1ccnc2cc(Cl)ccc12` (stereo not drawn) [Chloroquine, chloroquine], the IC50 is 350 nM with P. falciparum RF12; 180 ± 21 nM with P. falciparum Dd2; 9.1 ± 1.5 nM in series [1] (Plasmodium falciparum, NF54, read-out: P. falciparum IC50 NF54); 57 ± 0.9 nM in the series with P. falciparum 7G8; 160 ± 22 nM with P. falciparum TM90C2B; 270 ± 41 nM with P. falciparum K1.
With `O=C1Nc2ccccc2C(=O)CCc2ccccc21` [Compound 2, 11,12-dihydro-5H-dibenzo[b,g]azonine-6,13-dione], the IC50 in series [1] (setting [11]) amounted to 190 nM. Further, the chromatographic logD in “Chromatographic LogD7.4” came to 1.9. In addition, the “Apparent degradation t1/2, In Vitro Assay Medium” value in series [2] (1 μM, 37 °C, 6 h incubation, parentheses 95% confidence interval) is reported as “No loss detected over 6 h”. Further, in series [3], the “h CLint” value was 20 μL/min/mg protein and the microsomal CLint lay within 20 to 40 µL/min/mg. Besides, the microsomal CLint in series [4] amounted to 39 µL/min/mg. The “loss in 0.1 M PBS pH 7.4” value in [5] is below 5%.
Take `CCOC(=O)c1ccc2c(c1)C(=O)CCc1ccccc1C(=O)N2` [Compound 18, Ethyl 6,13-Dioxo-6,11,12,13-tetrahydro-5H-dibenzo-[b,g]azonine-2-carboxylate]: the IC50 was 11 ± 0.86 nM in the series with P. falciparum RF12; 30 ± 7.2 nM in the series on P. falciparum Dd2; 41 nM in series [1] (setting [11]); 41 ± 7.4 nM in series [1] (setting [10]); 32 ± 9.9 nM in the series with P. falciparum 7G8; 1000 nM in the series on P. falciparum TM90C2B. Further, the IC50 in the series with P. falciparum K1 turned out to be 30 ± 7.5 nM. In series [1] (relative to compound 2), the “fold more potent than 2 (antiplasmodial)” value is “roughly 5 fold”. Moreover, the chromatographic logD in “Chromatographic LogD7.4” stood at 2.6. Moreover, the intrinsic metabolic clearance (microsomal CLint) worked out at 100 µL/min/mg in [3] and 910 µL/min/mg in [4].
In the case of `O=C1Nc2cc(F)cc(F)c2C(=O)CCc2ccccc21` [Compound 28, 1,3-Difluoro-11,12-dihydro-5H-dibenzo[b,g]azonine-6,13-dione], the IC50 in series [1] (setting [11]) is 7 nM. In addition, the “in vitro selectivity index” value in [1] (antiplasmodial selectivity, L6 cytotoxicity vs P. falciparum) is given as > 10,000. Moreover, in “Chromatographic LogD7.4”, the chromatographic logD amounted to 2.5. For the same compound, the half-life at 1 μM in series [2] is 4.7 h. The same compound yielded a clearance in series [6] (male, Swiss outbred, mouse, plasma, iv) of 147 mL/min/kg. Besides, in series [6] (male, Swiss outbred, mouse, plasma, po), the peak concentration (Cmax) is around 500 ng/mL. Further, the “adverse reactions or compound-related side effects” value in series [6] (mice, 24 h post-dose sampling period, IV and PO) is “No adverse reactions or compound-related side effects were observed”. Moreover, the figures for the intrinsic metabolic clearance (microsomal CLint) in [3] and in series [4] were 17 µL/min/mg and 58 µL/min/mg, respectively. The compound further came in with a parasitemia in series [7] of 49.0 ± 4.3%.
In the case of `O=C1Nc2ncccc2C(=O)CCc2ccccc21` [Compound 29, 6,7-Dihydro-5H-benzo[g]pyrido[2,3-b]azonine-5,12-(13H)-dione], the IC50 in series [8] is 60000 nM; in series [1] (setting [12]), 8900 nM. This compound registered a gLogD7.4 in “Chromatographic LogD7.4” of 1.2. Moreover, the “Kinetic Sol6.5” value in series [9] was above 100 µg/mL. Moreover, in series [3], the “h CLint” value came out at 13 μL/min/mg protein. Also, the “m CLint” value in series [4] is recorded as 26 μL/min/mg protein.
For the compound `O=C1CCc2cccnc2C(=O)Nc2ccccc21` [Compound 31, 5,6-Dihydro-7H-benzo[b]pyrido[3,2-g]azonine-7,13-(12H)-dione], the IC50 in [8] is 190000 nM; in series [1] (setting [12]) it was 11000 nM. In addition, the gLogD7.4 in “Chromatographic LogD7.4” is 0.9. Further, the “Kinetic Sol6.5” value in series [9] was above 100 µg/mL. The “h CLint” value in series [3] is recorded as 11 μL/min/mg protein. Moreover, the “m CLint” value in series [4] is recorded as 10 μL/min/mg protein.
In the case of `O=C1Nc2ccccc2C(=O)CCc2cc(F)ccc21` [Compound 32, 9-Fluoro-11,12-dihydro-5H-dibenzo[b,g]azonine-6,13-dione], the IC50 in series [1] (setting [11]) was 130 nM. Besides, the chromatographic logD in the series “Chromatographic LogD7.4” came to 2.1. In addition, the half-life at 1 μM in series [2] was 25 h. In addition, the microsomal CLint in series [3] was 11 µL/min/mg; in series [4], 110 µL/min/mg. Also, the “loss in 0.1 M PBS pH 7.4” value in series [5] is reported as below 5%.
